Assay results taken from PubChem BioAssay (NCI).
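Step 1: Grow cells in 96-well plates. Step 2: Expose to compound for 48 hours at 5 concentrations. Step 3: Interpolate endpoints linearly; if unreached, use highest concentration. GI50: concentration for 50% inhibition of growth. At the TGI there is no net growth.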

Legend:
Assay in all cases: NCI-60 cell line screen, 48 h
DMS 273 small cell lung = test system: DMS 273 small cell lung
SNB-78 CNS = test system: SNB-78 CNS
M19-MEL melanoma = test system: M19-MEL melanoma
LXFL 529 NSCLC = test system: LXFL 529 NSCLC
HOP-18 NSCLC = test system: HOP-18 NSCLC
RXF-631 renal = test system: RXF-631 renal
DMS 114 small cell lung = test system: DMS 114 small cell lung
XF 498 CNS = test system: XF 498 CNS
MDA-N = test system: MDA-N

| Structure (SMILES) | TGI (DMS 273 small cell lung) | TGI (SNB-78 CNS) | TGI (M19-MEL melanoma) | TGI (LXFL 529 NSCLC) | TGI (HOP-18 NSCLC) | TGI (RXF-631 renal) | TGI (DMS 114 small cell lung) | TGI (XF 498 CNS) | TGI (MDA-N) | GI50 (DMS 273 small cell lung) | GI50 (M19-MEL melanoma) | GI50 (LXFL 529 NSCLC) | GI50 (XF 498 CNS) | GI50 (DMS 114 small cell lung) |
| --- | --- | --- | --- | --- | --- | --- | --- | --- | --- | --- | --- | --- | --- | --- |
| Oc1ccc2ccccc2c1N=Nc1ccsc1 | > 100 µM | > 100 µM | > 100 µM | > 100 µM | > 100 µM | > 100 µM | > 100 µM |  |  |  |  |  |  |  |
| C[C@]12CC/C(=N\O)C=C1CC[C@@H]1C2CC[C@@]2(C)C1CC[C@@H]2OC1CCCCO1 (some centres undefined) | 32.6 µM | 41.7 µM | 35.1 µM | 31.8 µM | 30 µM |  | 46.6 µM |  |  |  |  |  |  |  |
| O=c1ncc(F)cn1C1OC(CO)C(O)C1O (centres undefined) | > 44.6 µM | > 100 µM | > 54 µM | > 43.8 µM | > 100 µM | > 100 µM | > 41.9 µM | > 100 µM |  |  |  |  |  |  |
| CN(C)CCNC(=O)c1cccc(N(C)C(=O)c2ccccc2)c1[N+](=O)[O-] |  |  |  |  |  |  |  |  | > 100 µM |  |  |  |  |  |
| O=c1[nH]c(=S)[nH]c2c1CN(CCCN1CCOCC1)CN2 |  |  |  |  |  |  |  |  | > 100 µM |  |  |  |  |  |
| CC(C)([NH-])CO.CC(C)([NH-])CO.[Cl][Cd][Cl] | 30.2 µM |  | 38.3 µM | 29.3 µM |  |  | 46.7 µM | 69.1 µM |  | 13.5 µM | 16.9 µM | 15 µM | 20.4 µM | 19.8 µM |
| Cn1cnc([N+](=O)[O-])c1Sc1nccn1-c1cccc2ccccc12 | 79.8 µM | 77.9 µM | 98.9 µM | 99.4 µM | 8.89 µM | 84.2 µM | 62 µM | 58.9 µM |  |  |  |  |  |  |
| C/C(=N\NS(=O)(=O)c1ccc(C)cc1)P(=O)(O)O |  |  |  |  |  |  |  |  | > 100 µM |  |  |  |  |  |
| Cc1ccc(S(=O)(=O)NC2(C=O)CCCC3CCCCC32)cc1 (centres undefined) | > 100 µM | > 100 µM | > 100 µM | > 100 µM | > 100 µM | > 100 µM | > 100 µM |  |  |  |  |  |  |  |
